SMILES strings stand for the structures.

The target of the assay is CDK2 (human) (UniProt P24941). Description: Enzyme Assay.
For `Cc1cc(CN(C)C)ccc1NC(=O)c1ccc(C(=O)Nc2ccc(-n3cncn3)cc2)s1`, the IC50 was in the range of 1 to 40 µM.
The value for `O=C(Nc1ccc(-n2cncn2)cc1)c1ccc(C(=O)N2CCCC(c3ccccc3)C2)s1` (configuration not stated) was not below 40 µM; that for `O=C(Nc1ccc(-n2cncn2)cc1)c1ccc(C(=O)Nc2cccc(O)c2)s1` was not below 40 µM; that for `Cn1nc(-c2cccs2)cc1NC(=O)c1ccc(C(=O)Nc2ccc(-n3cncn3)cc2)s1` was not below 40 µM.
With `COc1ccc(C(=O)Nc2ccc(C(=O)N3CCC(Oc4cnccn4)CC3)o2)cc1`, the half-inhibitory concentration (IC50) is not below 40 µM.
The same measure for `Cn1c(NC(=O)c2ccc(C(=O)Nc3ccc(-n4cncn4)cc3)s2)nc2ccccc21`: not below 40 µM.
The same measure for `O=C(NCCN1CCNC1=O)c1ccc(C(=O)Nc2ccc(-n3cncn3)cc2)s1`: not below 40 µM.
The same measure for `O=C(Nc1ccc(-n2cncn2)cc1)c1ccc(NC(=O)C2CCCCC2)s1`: not above 1 µM; for `Cc1cc(N2CCOCC2)ccc1NC(=O)c1ccc(C(=O)Nc2ccc(-n3cncn3)cc2)s1`: not above 1 µM.
With `O=C(Nc1ccc(-n2cncn2)cc1)c1ccc(C(=O)NC2CCCCC2)s1`, the IC50 is not below 40 µM.
The value for `COc1ccc(NCc2ccc(C(=O)Nc3ccc(-n4cncn4)cc3)o2)c(C)c1` was not below 40 µM.
The same measure for `O=C(Nc1ccc(-n2cncn2)c(F)c1)c1ccc(C(=O)Nc2ccccc2Cl)s1`: not above 1 µM; for `COc1ccc(NC(=O)c2ccc(C(=O)Nc3ccc(-c4nnc[nH]4)cc3)s2)c(C)c1`: not above 1 µM; for `O=C(NCC1CCCCC1)c1ccc(C(=O)Nc2ccc(-n3cncn3)cc2)s1`: not below 40 µM.
The value for `COc1ccc(NC(=O)c2ccc(C(=O)Nc3cccc(-c4cnco4)c3)s2)c(C)c1` was not below 40 µM; that for `O=C(Nc1ccc(-n2cncn2)cc1)c1ccc(C(=O)N[C@H]2CCc3ccccc32)s1` was 1 to 40 µM.
`COc1ccc(NC(=O)c2ccc(C(=O)Nc3ccc(-n4cncn4)cc3)o2)cc1` returned an IC50 not above 1 µM.
The value for `COc1ccc(C(=O)Nc2ccc(C(=O)Nc3ccc(-n4ccnc4)cc3)o2)c(C)c1` was not below 40 µM; that for `CNC(=O)c1ccc(C(=O)Nc2ccc(-n3cncn3)c(F)c2)o1` was not below 40 µM.
The value for `COc1ccc(C(=O)Nc2ccc(C(=O)N3CCC(c4ccccn4)C3)s2)c(C)c1` (configuration not stated) was not below 40 µM; that for `O=C(Nc1ccc(C(=O)Nc2ccc(-n3cncn3)cc2)s1)c1ccccc1` was not above 1 µM.
Compound `O=C(NCCN1CCCC1)c1ccc(C(=O)Nc2ccc(-n3cncn3)cc2)s1` returned an IC50 of 1 to 40 µM.
For `C[C@H](O)CNC(=O)c1ccc(C(=O)Nc2ccc(-n3cncn3)cc2)s1`, the IC50 is not below 40 µM.
The value for `Cc1cc(OCCN2CCOCC2)ccc1NC(=O)c1ccc(C(=O)Nc2ccc(-n3cncn3)cc2)s1` was not above 1 µM; that for `COc1ccc(NC(=O)c2ccc(C(=O)Nc3ccc(-n4cncn4)cc3F)s2)c(C)c1` was not below 40 µM; that for `C[C@@H](NC(=O)c1ccc(C(=O)Nc2ccc(-n3cncn3)cc2)s1)C1CCCCC1` was not below 40 µM.
The value for `COc1ccc(NC(=O)c2ccc(C(=O)Nc3ccc4nccnc4c3)s2)c(C)c1` was not below 40 µM.
The same measure for `Nc1ccc(CNC(=O)c2ccc(C(=O)Nc3ccc(-n4cncn4)cc3)s2)cn1`: not below 40 µM.
In turn, `O=C(Nc1ccc(-n2cncn2)cc1)c1ccc(C(=O)Nc2ccc3c(c2)C(=O)OC3)s1` showed an IC50 not below 40 µM.
The value for `COc1ccc(NC(=O)c2ccc(C(=O)Nc3ccc(N4CCOCC4)cc3)s2)c(C)c1` was not below 40 µM; that for `CN(C)CCNC(=O)c1ccc(C(=O)Nc2ccc(-n3cncn3)cc2)s1` was not below 40 µM.
Turning to `COc1ccc(NC(=O)c2ccc(C(=O)Nc3ccc(-c4ncn(C)n4)cc3)s2)c(C)c1`, the IC50 was not below 40 µM.
In turn, `Cc1cccc(NC(=O)c2ccc(C(=O)Nc3ccc(-n4cncn4)cc3)s2)n1` yielded a 50% inhibitory concentration (IC50) not below 40 µM.
The value for `O=C(Nc1ccc(-n2cncn2)cc1)c1ccc(C(=O)N[C@@H]2CCc3ccccc32)s1` was not below 40 µM; that for `COc1ccc(NC(=O)c2ccc(C(=O)Nc3ccc(-n4cncn4)c(F)c3)s2)c(C)c1` was not above 1 µM; that for `COc1ccc(Cl)cc1NC(=O)c1ccc(C(=O)Nc2ccc(-n3cncn3)cc2)s1` was 1 to 40 µM.
The same measure for `O=C(Nc1ccc(-n2cncn2)cc1)c1ccc(C(=O)NC2CCCC2)s1`: 1 to 40 µM.
The same measure for `O=C(Nc1ccc(-n2cncn2)c(F)c1)c1ccc(C(=O)NC2CCCCC2)o1`: not above 1 µM; for `Cc1cc(CN2CCOCC2)ccc1NC(=O)c1ccc(C(=O)Nc2ccc(-n3cncn3)c(F)c2)s1`: not above 1 µM; for `Cc1cc(N[C@H]2CCNC2)ccc1NC(=O)c1ccc(C(=O)Nc2ccc(-n3cncn3)cc2)s1`: not above 1 µM.
The compound `O=C(NC[C@H]1CCCO1)c1ccc(C(=O)Nc2ccc(-n3cncn3)cc2)s1` returned an IC50 not below 40 µM.
Consider `O=C(NCc1ccc2c(c1)CCO2)c1ccc(C(=O)Nc2ccc(-n3cncn3)cc2)s1`, for which the IC50 was not below 40 µM.
The value for `COc1ccc(C(=O)Nc2ccc(C(=O)N3CCC(Oc4cnccn4)CC3)s2)c(C)c1` was 1 to 40 µM; that for `Cc1cnc(CNC(=O)c2ccc(C(=O)Nc3ccc(-n4cncn4)cc3)s2)cn1` was not below 40 µM.
The same measure for `COC(=O)c1ccc(NC(=O)c2ccc(C(=O)Nc3ccc(OC)cc3C)s2)cc1`: not below 40 µM.
The same measure for `COc1ccc(NC(=O)c2ccc(C(=O)Nc3ccc(N4CCOCC4)nc3)s2)c(C)c1`: not below 40 µM.
The compound `O=C(Nc1ccc(C(=O)Nc2ccc(-n3cncn3)cc2)s1)c1ccncc1` showed an IC50 not below 40 µM.
In turn, `COc1ccc(C(=O)Nc2ccc(C(=O)N3CCC(c4ccccn4)C3)o2)c(C)c1` (configuration not stated) gave a concentration for half-maximal inhibition (IC50) not below 40 µM.
The value for `COc1ccc(NC(=O)c2ccc(C(=O)Nc3ccc(-n4cncn4)cc3)s2)cc1F` was not below 40 µM; that for `Cc1cc(CN2CCOCC2)ccc1NC(=O)c1ccc(C(=O)Nc2ccc(-n3cncn3)cc2)s1` was not above 1 µM; that for `O=C(Nc1ccc(-n2cncn2)c(F)c1)c1ccc(C(=O)Nc2ccccc2OCc2ccccc2)s1` was not below 40 µM.
The same measure for `COc1ccc(NC(=O)c2ccc(C(=O)Nc3ccc4sc(SC)nc4c3)s2)c(C)c1`: not below 40 µM; for `O=C(Nc1ccccc1)c1ccc(C(=O)Nc2ccc(-n3cncn3)cc2)o1`: 1 to 40 µM; for `O=C(NCCc1ccccn1)c1ccc(C(=O)Nc2ccc(-n3cncn3)cc2)s1`: not below 40 µM.
The value for `COc1ccc(NC(=O)c2ccc(C(=O)Nc3ccc4ncccc4c3)s2)c(C)c1` was not below 40 µM; that for `O=C(Nc1ccc(-n2cncn2)cc1)c1ccc(C(=O)N2CCCC2c2cccnc2)s1` (configuration not stated) was not below 40 µM; that for `O=C(Nc1ccc(-n2cncn2)cc1)c1ccc(C(=O)N[C@@H]2CCNC2)s1` was not below 40 µM.
`COc1ccc(NC(=O)c2ccc(C(=O)N3CCC(Oc4cnccn4)CC3)s2)c(C)c1` yielded an IC50 of 1 to 40 µM.
For `Cc1cc(N(C)CCN(C)C)ccc1NC(=O)c1ccc(C(=O)Nc2ccc(-n3cncn3)cc2)s1`, the 50% inhibitory concentration (IC50) was not above 1 µM.
The same measure for `COc1ccc(C(=O)Nc2ccc(C(=O)N3CCC(c4ccncc4)C3)o2)c(C)c1` (configuration not stated): not below 40 µM.
The same measure for `O=C(NCc1cccnc1)c1ccc(C(=O)Nc2ccc(-n3cncn3)cc2)s1`: not below 40 µM; for `CN(C)CCNC(=O)c1ccc(C(=O)Nc2ccc(-n3cncn3)c(F)c2)o1`: not below 40 µM.
`Cc1cc(N[C@H]2CCNC2)ccc1NC(=O)c1ccc(C(=O)Nc2ccc(-n3cncn3)c(F)c2)s1` had a half-inhibitory concentration (IC50) not above 1 µM.
The same measure for `Cc1cc(Cn2ccnc2)ccc1NC(=O)c1ccc(C(=O)Nc2ccc(-n3cncn3)c(F)c2)s1`: not above 1 µM.
`Cc1ccccc1C(=O)Nc1ccc(C(=O)Nc2ccc(-n3cncn3)cc2)s1` yielded a 50% inhibitory concentration (IC50) not above 1 µM.
The same measure for `NS(=O)(=O)c1ccc(NC(=O)c2ccc(C(=O)Nc3ccc(-n4cncn4)cc3)s2)cc1`: not below 40 µM.
The value for `O=C(Nc1ccc(-n2cncn2)cc1)c1ccc(C(=O)N2CCCCC2)s1` was not below 40 µM; that for `COc1ccc(NC(=O)c2ccc(C(=O)Nc3ccc(-c4nc[nH]n4)c(F)c3)o2)c(C)c1` was not above 1 µM.
The value for `COc1ccc(NC(=O)c2ccc(C(=O)Nc3ccc(N(C)C)cc3)s2)c(C)c1` was not below 40 µM.
Consider `CCOc1ccccc1NC(=O)c1ccc(C(=O)Nc2ccc(-n3cncn3)c(F)c2)s1`, for which the half-inhibitory concentration (IC50) is not below 40 µM.
The same measure for `Cc1cc(NC(=O)c2ccc(C(=O)Nc3ccc(-n4cncn4)cc3)s2)ccc1F`: not below 40 µM.
`Cc1cc(N2CCOCC2)ccc1NC(=O)c1ccc(C(=O)Nc2ccc(-n3cncn3)c(F)c2)s1` registered a half-maximal inhibitory concentration (IC50) not above 1 µM.
The value for `COc1ccc(C(=O)Nc2ccc(C(=O)Nc3ccc(-n4cncn4)cc3)s2)c(C)c1` was not above 1 µM; that for `COc1ccc(C(=O)Nc2ccc(C(=O)Nc3ccc(-n4cncn4)cc3)o2)c(C)c1` was not below 40 µM; that for `O=C(NC[C@@H]1CCCO1)c1ccc(C(=O)Nc2ccc(-n3cncn3)cc2)s1` was not below 40 µM.
The same measure for `O=C(NCCN1CCCCC1)c1ccc(C(=O)Nc2ccc(-n3cncn3)cc2)s1`: not below 40 µM; for `O=C(Nc1ccc(-n2cncn2)cc1)c1ccc(C(=O)N2CCN(c3ccccc3)CC2)s1`: not below 40 µM.
In turn, `COc1ccc(NC(=O)c2ccc(C(=O)Nc3ccc(N4CCN(C)CC4)cc3)s2)c(C)c1` registered a concentration for half-maximal inhibition (IC50) not below 40 µM.
Compound `COc1ccc(C(=O)Nc2ccc(C(=O)N3CCC(c4ccncc4)C3)s2)c(C)c1` (configuration not stated) gave a half-maximal inhibitory concentration (IC50) not below 40 µM.
The same measure for `COc1ccc(C(=O)Nc2ccc(C(=O)Nc3ccc(-n4cncn4)cc3)o2)cc1`: not below 40 µM; for `O=C(Nc1ccc(-n2cncn2)cc1)c1ccc(C(=O)NC2CCNCC2)s1`: not below 40 µM; for `CN(C)C(=O)c1ccc(C(=O)Nc2ccc(-n3cncn3)c(F)c2)o1`: not below 40 µM.
The value for `O=C(Nc1ccc(-n2cncn2)cc1)c1ccc(C(=O)NC2CCC2)s1` was not below 40 µM; that for `Cc1ccsc1CNC(=O)c1ccc(C(=O)Nc2ccc(-n3cncn3)cc2)s1` was 1 to 40 µM; that for `CN1CCC(NC(=O)c2ccc(C(=O)Nc3ccc(-n4cncn4)c(F)c3)o2)CC1` was not below 40 µM.
The same measure for `Cc1cc(CN2CCN(C)CC2)ccc1NC(=O)c1ccc(C(=O)Nc2ccc(-n3cncn3)c(F)c2)s1`: not above 1 µM; for `O=C(Nc1ccc(-n2cncn2)c(F)c1)c1ccc(C(=O)Nc2ccccc2OCc2ccncc2)s1`: not below 40 µM.

For orientation: IC50 means the concentration that inhibits the measured activity by half. A low value points to inhibition by little substance.

The values are drawn from the Kinase Knowledgebase extract (Sharma et al. 2016).
